In article PMC11407758, “Integrated stress response (ISR) activation and apoptosis through HRI kinase by PG3 and other p53 pathway-restoring cancer therapeutics” (Oncotarget, 2024):
Where two headings read alike, the source gives them in different places.

Experiments:
[1] = tested on: PUMA; experiment: Western blot, PUMA induction; type: cell-based, human; conditions: five cell lines, 24 h
Protocol: (§1) Figure 4 Activation of ATF4 and up-regulation of typical p53 target genes. (A–E) Western blot analysis of p53 protein levels and upregulation of ATF4, PUMA, DR5 and p21. Cells were treated for 24 h with indicated compounds, concentrations and cell lines. Abbreviations: S.E.: Short exposure; L.E.: Long exposure.
(§2) After treatment, protein lysates were collected for Western blot analysis. A total of 15 μg of protein was used for SDS-PAGE. After primary and secondary antibody incubations, the signal was detected by a chemiluminescence detection kit, imaged by Syngene (Imgen Technologies). Antibodies for NAG-1 (GDF15) and P53 were from Santa Cruz Biotechnology; for caspase 8, cleaved caspase 8, caspase 9, caspase 3, cleavage PARP, eIF2α, p-eIF2α (Ser51), CHOP, ATF4, DR5, and PUMA were from Cell Signaling Technology. Noxa and p21 were from Calbiochem. Ran was from BD Biosciences.

[2] = tested on: HCT116 (R175H); experiment: Cell viability assay (CellTiterGlo), HCT116 R175H; type: cell-based, human; conditions: Homo sapiens, HCT-116; 72 h, CellTiterGlo
Protocol: (§3) Figure 1 PG3 inhibits cell proliferation and growth in a p53-indepent manner. (A–E) Cell viability assay, dose response curves and IC50 value measurements in a panel of cancer cell lines and normal cells. Cells were treated with different concentrations of PG3, PG3-Oc (Oc), obatoclax (Ob), prodigiosin (P) or DMSO for 72 h. Luciferase activity was imaged by the IVIS Imaging System after treatment. Cell viability data were normalized to those of DMSO treatment control in each cell line and data analyses were performed using PRISM4 software. IC50 data are expressed as the mean ±SD (normal; n = 3).
as §3, with “2 p53-dependent inhibition of” for “1 PG3 inhibits”, “is only observed at specific concentrations. (A–J)” for “and growth in a p53-indepent manner. (A–E)”, “ZMC1, CP-313908, APR-246, Ellipticine, Nutalin-3a” for “PG3, PG3-Oc (Oc), obatoclax (Ob), prodigiosin (P)”
(§4) Cells were seeded in 96-well plates (6 × 10^3 cells/well). Cells were treated with different concentrations of compounds or dimethyl sulfoxide (DMSO) as a control for 72 hours. The cell viability was assessed by CellTiterGlo bioluminescent cell viability assay (Promega), following the manufacturer’s protocol. Bioluminescence imaging was measured using the IVIS imager. The percentage of cell viability (mean ± SEM) at each dose was calculated against the respective DMSO control. The IC50 values were determined from the sigmoidal dose-response curves using GraphPad Prism.

[3] = tested on: HT29 (R273H); experiment: Cell viability assay (CellTiterGlo), HT29; type: cell-based, human; conditions: Homo sapiens, HT-29; 72 h, CellTiterGlo
Protocol: as §3
as §3, with “2 p53-dependent inhibition of” for “1 PG3 inhibits”, “is only observed at specific concentrations. (A–J)” for “and growth in a p53-indepent manner. (A–E)”, “ZMC1, CP-313908, APR-246, Ellipticine, Nutalin-3a” for “PG3, PG3-Oc (Oc), obatoclax (Ob), prodigiosin (P)”
as §4

[4] = tested on: GCN2, PKR, eIF2α, ATF4, CHOP in HT29 cells; experiment: Western blot, ISR kinases / eIF2α / ATF4 / CHOP; type: cell-based, human; conditions: HT29, 15 h
Procedure, shortened: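 HT29 cells treated with compound alone or with GSK2606414, TG or ONC201 for 15 h; further arms used siRNA knockdown (24 h) then 16 h treatment. Lysates (15 μg protein) analysed by SDS-PAGE Western blot with chemiluminescent detection.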

[5] = tested on: TOV-112D (R175H); experiment: Cell viability assay (CellTiterGlo), TOV-112D; type: cell-based, human; conditions: for IC50: Homo sapiens, TOV112D, 72 h
Protocol: as §3
as §3, with “2 p53-dependent inhibition of” for “1 PG3 inhibits”, “is only observed at specific concentrations. (A–J)” for “and growth in a p53-indepent manner. (A–E)”, “ZMC1, CP-313908, APR-246, Ellipticine, Nutalin-3a” for “PG3, PG3-Oc (Oc), obatoclax (Ob), prodigiosin (P)”
as §4

[6] = tested on: DR5; experiment: Western blot, DR5 induction; type: cell-based, human; conditions: five cell lines, 24 h
Protocol: as §1, §2

[7] = tested on: HFF-1 (human foreskin fibroblast cell with wild-type p53); experiment: Cell viability assay (CellTiterGlo), HFF-1 normal cells; type: cell-based
Protocol: as §3
as §3, with “2 p53-dependent inhibition of” for “1 PG3 inhibits”, “is only observed at specific concentrations. (A–J)” for “and growth in a p53-indepent manner. (A–E)”, “ZMC1, CP-313908, APR-246, Ellipticine, Nutalin-3a” for “PG3, PG3-Oc (Oc), obatoclax (Ob), prodigiosin (P)”
as §4

[8] = tested on: ATF4; experiment: Western blot, ATF4 induction; type: cell-based, human; conditions: five cancer cell lines, 24 h
Protocol: as §1, §2

[9] = tested on: ALAS1, UROD; experiment: Western blot, heme biosynthesis enzymes; type: cell-based, human
Protocol: Figure 8 Inhibition of heme biosynthesis leads to upregulation of ATF4. (A) HT29 cells were treated with SA and ONC201 for 20 hours. Western blotting was performed using the indicated antibodies. (B) HT29 cells were transfected with siCtrl, siHRI, siClpX, siALAS1, siClpX/siALAS1 and siClpX/siALAS1/siHRI for 48 hours. (C) HT29 cells were transfected with siCtrl, siLonP1, siClpP for 24 or 48 hours respectively, and then treated with ONC201 for 24 hours. (D) Proposed model of ONC201-induced cell apoptosis through ClpP/ALAS1/HRI/ATF4 axis. (E, F) Silencing of ClpP in HCT116 p53^−/− and MDA-MB-468 cells and then treated with PG3, PG3-Oc and ONC201. Western blot was performed using indicated antibodies.
as §2
Supplementary Figure 2: ROS and NO are not responsible for PG3-induced HRI activation. (A, B) cells were pre-treated
with ZnPP, L-NMMA, SA and NAC for 2 hours respectively, and then ONC201 or PG3 was added to the medium for 24 hour treatment.
Western blot was performed using indicated antibodies.
(1 picture or pasted object on this page, not shown here)

[10] = tested on: MRC5 (human lung fibroblast cell with wild-type p53); experiment: Cell viability assay (CellTiterGlo), MRC5 normal cells; type: cell-based; conditions: Homo sapiens, MRC5, 72 h, read-out: IC50 values, MRC5 (WT)
Protocol: as §3
as §3, with “2 p53-dependent inhibition of” for “1 PG3 inhibits”, “is only observed at specific concentrations. (A–J)” for “and growth in a p53-indepent manner. (A–E)”, “ZMC1, CP-313908, APR-246, Ellipticine, Nutalin-3a” for “PG3, PG3-Oc (Oc), obatoclax (Ob), prodigiosin (P)”
as §4

[11] = tested on: p21; experiment: Western blot, p21 induction; type: cell-based, human; conditions: five cell lines, 24 h
Protocol: as §1, §2

[12] = tested on: HCT116 (P53−/−); experiment: Cell viability assay (CellTiterGlo), HCT116 p53-/-; type: cell-based, human; conditions: Homo sapiens, HCT-116; 72 h, CellTiterGlo
Protocol: as §3
as §3, with “2 p53-dependent inhibition of” for “1 PG3 inhibits”, “is only observed at specific concentrations. (A–J)” for “and growth in a p53-indepent manner. (A–E)”, “ZMC1, CP-313908, APR-246, Ellipticine, Nutalin-3a” for “PG3, PG3-Oc (Oc), obatoclax (Ob), prodigiosin (P)”
as §4

IC50 [2]: 66 nM
IC50 [3]: 36 nM
IC50 [12]: 52 nM
Compound: CCc1c(C)[nH]c(/C=C2\N=C(c3ccc[nH]3)C=C2OC)c1C [PG3]
upregulation of PUMA [1]: consistently induce upregulation
phosphorylation of GCN2 and PKR [4]: does not increase phosphorylation
IC50 ([5]; CellTiterGlo, read-out: IC50 values, TOV-1120 (R175H) (converted)): 126 nM
IC50 ([5]; unit inferred, 'within the nanomolar range', read-out: IC50 value, TOV-112D): 120 nM
fold less potent than PG3-Oc ([5]; TOV-112D): 3.3 fold
upregulation of DR5 [6]: consistently induce upregulation
fold less toxic than PG3-Oc ([7]; HFF-1 normal cells): 3.4 fold
IC50 ([7]; Homo sapiens, HFF-1, 72 h, CellTiterGlo, normal cells, read-out: IC50 values, HFF-l (WT)): 1050 nM
upregulation of ATF4 [8]: induce upregulation of ATF4
ALAS1 protein level ([9]; 24 hour treatment): does not lead to the downregulation of ALAS1
UROD protein levels ([9]; western blot): do not have any effects
IC50 [10]: 2230 nM
upregulation of p21 [11]: consistently induce upregulation
